Assay results: patent publication US20230033195A1, “METHODS AND COMPOSITIONS FOR IMPROVING COGNITIVE FUNCTION” (THE JOHNS HOPKINS UNIVERSITY, priority 2011, published 2023)

Tests used:
[1] = system: entorhinal cortex (EC) of aMCI subjects; assay: fMRI activity during lure stimuli correctly identified as similar, entorhinal cortex; type: in vivo, human; settings: 125 mg twice a day for two weeks
Protocol: FIG. 9B depicts the average activity in the left entorhinal cortex of the same aMCI subjects with placebo treatment or levetiracetam treatment (125 mg twice a day for two weeks) during the presentation of lure stimuli that the subject correctly identified as "similar."
A within-subjects trial of 8 weeks duration, involving 17 amnestic MCI (aMCI) subjects and 17 age-matched controls with a low dose treatment of levetiracetam is conducted. During the course of the study, each aMCI subject receives both drug and placebo treatments separately in two periods of two weeks each, with the order of treatments among different aMCI subjects counterbalanced (see FIG. 7). Age-matched control subjects treated with placebo serve as a further control. Cognitive testing and fMRI imaging data are obtained from the subjects after each two week period of drug/placebo treatment.
Imaging data are obtained through high-resolution methods developed in the Stark laboratory. Data are collected on a Phillips 3 Tesla scanner (Eindhoven, The Netherlands) equipped with an 8-channel SENSE (Sensitivity Encoding) head coil, located at the F.M. Kirby Research Center for Functional Brain Imaging at the Kennedy Krieger Institute (Baltimore, MD). […]
Group data are analyzed using a two-way Analysis of Variance (ANOVA) with trial types and group as fixed factors, and subject as a random factor nested within group. […]

aged-impaired (AI) rats = assay: eight-arm Radial Arm Maze (RAM) task with one-hour delay, spatial memory retention; type: in vivo, rat; settings: for average no. of errors ± SEM: one-hour delay, vehicle 2.00 ± 0.42
Protocol: FIG. 3 depicts the effects of administering levetiracetam on the spatial memory retention of ten aged-impaired rats (AI) in an eight-arm Radial Arm Maze (RAM) test. Six treatment conditions were employed: vehicle control, levetiracetam (1.25 mg/kg), levetiracetam (2.5 mg/kg), levetiracetam (5 mg/kg), levetiracetam (10 mg/kg) and levetiracetam (20 mg/kg). In the RAM task used, there was a one-hour delay between presentation of a subset of arms (5 arms available and 3 arms blocked) and completion of the eight-arm win-shift task (eight arms available). Rats were pre-treated 30 - 40 minutes before daily trials with a one-time drug/control treatment. The number of errors made by the rats after the delay was used as a measure of spatial memory retention. Errors were defined as instances when rats entered an arm from which food had already been retrieved in the pre-delay component of the trial or when rats re-visited an arm in the post-delay session that had already been visited. Paired t-tests were used to compare the number of errors between different doses of levetiracetam and vehicle control.
The effects of levetiracetam on the spatial memory retention of aged-impaired (AI) rats were assessed in a Radial Arm Maze (RAM) behavioral task using vehicle control and five different dosage levels of levetiracetam (1.25 mg/kg/day, 2.5 mg/kg/day, 5 mg/kg/day, 10 mg/kg/day and 20 mg/kg/day). RAM behavioral tasks were preformed on ten AI rats. All six treatment conditions were tested on all ten rats, as described above for the MWM test.
The RAM apparatus used consisted of eight equidistantly-spaced arms. An elevated maze arm (7 cm width x 75 cm length) projected from each facet of an octagonal center platform (30 cm diameter, 51.5 cm height). Clear side walls on the arms were 10 cm high and were angled at 65° to form a trough. A food well (4 cm diameter, 2 cm deep) was located at the distal end of each arm. Froot Loops™ (Kellogg Company) were used as rewards. Blocks constructed of Plexiglas™ (30 cm height x 12 cm width) could be positioned to prevent entry to any arm. Numerous extra maze cues surrounding the apparatus were also provided.
The AI rats were initially subjected to a pre-training test (Chappell et al. Neuropharmacology 37: 481-487, 1998). The pre-training test consisted of a habituation phase (4 days), a training phase on the standard win-shift task (18 days) and another training phase (14 days) in which a brief delay was imposed between presentation of a subset of arms designated by the experimenter (e.g., 5 arms available and 3 arms blocked) and completion of the eight-arm win-shift task (i.e., with all eight arms available).
In the habituation phase, rats were familiarized to the maze for an 8-minute session on four consecutive days. In each of these sessions food rewards were scattered on the RAM, initially on the center platform and arms and then progressively confined to the arms. After this habituation phase, a standard training protocol was used, in which a food pellet was located at the end of each arm. Rats received one trial each day for 18 days. Each daily trial terminated when all eight food pellets had been obtained or when either 16 choices were made or 15 minutes had elapsed. After completion of this training phase, a second training phase was carried out in which the memory demand was increased by imposing a brief delay during the trial. At the beginning of each trial, three arms of the eight-arm maze were blocked. Rats were allowed to obtain food on the five arms to which access was permitted during this initial 'information phase' of the trial. Rats were then removed from the maze for 60 seconds, during which time the barriers on the maze were removed, thus allowing access to all eight arms. Rats were then placed back onto the center platform and allowed to obtain the remaining food rewards during this 'retention test' phase of the trial. The identity and configuration of the blocked arms varied across trials. […]

CC[C@@H](C(N)=O)N1CCCC1=O [levetiracetam, (2S)-2-(2-oxopyrrolidin-1-yl) butanamide]
EC activity compared with placebo-treated control subjects [1]: statistically indistinguishable
EC activity during memory judgments, vs placebo treatment [1]: increases EC activity
average no. of errors ± SEM (aged-impaired (AI) rats; 5 mg/kg/day i.p.): 0.75 ± 0.32
memory performance relative to vehicle control (aged-impaired (AI) rats; 5 mg/kg/day, t(9) = 2.18, p = 0.057): significantly improved memory performance
average no. of errors ± SEM (aged-impaired (AI) rats; 10 mg/kg/day i.p.): 0.80 ± 0.27
memory performance relative to vehicle control (aged-impaired (AI) rats; 10 mg/kg/day, t(9) = 2.37, p = 0.042): significantly improved memory performance
performance of AI rats in the radial maze task (aged-impaired (AI) rats; levetiracetam 20 mg/kg): fails to improve the performace
effective in reducing the number of errors, on its own (aged-impaired (AI) rats; levetiracetam i.p. 1.25 mg/kg): not
effective in reducing the number of errors, on its own (aged-impaired (AI) rats; levetiracetam i.p. 2.5 mg/kg): not
effective in reducing the number of errors, on its own (aged-impaired (AI) rats; levetiracetam i.p. 5-10 mg/kg): effective
